Laboratory results reported in patent US20250115591A1, “NOVEL SULFONAMIDE CARBOXAMIDE COMPOUNDS” (INFLAZOME LIMITED, priority 2017, published 2025).
Where a name gives a salt, the structure may show the parent alone.

Target: NLRP3 (Homo sapiens (Human), UniProt Q96P20)
Experiment: THP-1 cells pyroptosis assay (LPS + nigericin, resazurin read-out)
Type: cell-based
Conditions: 1 μg/ml LPS, 5 μM nigericin
Procedure: THP-1 cells (ATCC #TIB-202) were grown in RPMI containing L-glutamine (Gibco 15 #11835) supplemented with 1 mM sodium pyruvate (Sigma #S8636) and penicillin (100 units/ml)/streptomycin (0.1 mg/ml) (Sigma #P4333) in 10% Fetal Bovine Serum (FBS) (Sigma #F0804). The cells were routinely passaged and grown to confluency (˜10^6 cells/ml). On the day of the experiment, THP-1 cells were harvested and resuspended into RPMI medium (without FBS). The cells were then counted and viability (>90%) checked by Trypan blue (Sigma #T8154). Appropriate dilutions were made to give a concentration of 625,000 cells/ml. To this diluted cell solution was added LPS (Sigma #[4524) to give a 1 μg/ml Final Assay Concentration (FAC). 40μ of the final preparation was aliquoted into each well of a 96-well plate. The plate thus prepared was used for compound screening.
The following method step-by-step assay was followed for compound screening. • 1. Seed THP-1 cells (25,000 cells/well) containing 1.0 μg/ml LPS in 40μ of RPMI medium (without FBS) in 96-well, black walled, clear bottom cell culture plates coated with poly-D-lysine (VWR #734-0317) • 2. Add 5 μl compound (8 points half-log dilution, with […]) or vehicle (DMSO 0.1% FAC) to the appropriate wells • 3. Incubate for 3 hrs at 37° C. and 5% CO2 • 4. Add 5 μl nigericin (Sigma #N7143) (FAC 5 μM) to all wells • 5. Incubate for 1 hr at 37° C. and 5% CO2 • 6. At the end of the incubation period, spin plates at 300×g for 3 mins and remove supernatant • 7. Then add 50 μl of resazurin (Sigma #R7017) (FAC 100 μM resazurin in RPMI medium without FBS) and incubate plates for a further 1-2 hrs at 37° C. and 5% CO2 • 8. Plates were read in an Envision reader at Ex 560 nm and Em 590 nm • 9. IC50 data is fitted to a non-linear regression equation (log inhibitor vs response-variable slope 4-parameters)

Chain of NLRP3 (Q96P20 whole entry): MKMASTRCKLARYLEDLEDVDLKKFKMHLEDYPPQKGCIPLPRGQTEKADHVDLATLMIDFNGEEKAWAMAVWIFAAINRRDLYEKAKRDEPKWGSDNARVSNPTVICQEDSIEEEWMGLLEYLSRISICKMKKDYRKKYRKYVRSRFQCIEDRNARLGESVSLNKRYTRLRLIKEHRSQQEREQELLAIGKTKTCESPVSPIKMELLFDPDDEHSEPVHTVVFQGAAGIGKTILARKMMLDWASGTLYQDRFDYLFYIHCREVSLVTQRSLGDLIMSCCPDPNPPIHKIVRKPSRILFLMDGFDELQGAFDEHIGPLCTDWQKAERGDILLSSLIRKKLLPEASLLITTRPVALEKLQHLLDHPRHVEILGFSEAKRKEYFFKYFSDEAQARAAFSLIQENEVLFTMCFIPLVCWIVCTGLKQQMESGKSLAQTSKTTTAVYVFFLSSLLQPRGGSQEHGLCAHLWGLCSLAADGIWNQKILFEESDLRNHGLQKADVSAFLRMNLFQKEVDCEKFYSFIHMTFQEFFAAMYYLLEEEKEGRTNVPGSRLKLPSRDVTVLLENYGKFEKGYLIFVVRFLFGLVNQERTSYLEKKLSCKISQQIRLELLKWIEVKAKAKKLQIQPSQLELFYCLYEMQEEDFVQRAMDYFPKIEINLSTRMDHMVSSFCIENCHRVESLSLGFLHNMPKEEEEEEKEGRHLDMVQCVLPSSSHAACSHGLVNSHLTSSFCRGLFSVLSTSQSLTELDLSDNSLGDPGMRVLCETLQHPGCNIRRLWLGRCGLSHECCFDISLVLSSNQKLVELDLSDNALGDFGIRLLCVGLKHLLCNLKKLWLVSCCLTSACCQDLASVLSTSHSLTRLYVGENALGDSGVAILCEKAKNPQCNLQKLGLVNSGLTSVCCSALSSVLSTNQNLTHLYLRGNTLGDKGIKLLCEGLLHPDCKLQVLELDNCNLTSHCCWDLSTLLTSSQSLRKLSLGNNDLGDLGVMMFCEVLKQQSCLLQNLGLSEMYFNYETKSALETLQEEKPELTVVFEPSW

Compound	IC50 [µM]
CCN1CC(S(=O)(=O)NC(=O)Nc2c3c(cc4c2CCC4)CCC3)Cc2ccccc21 (centres unmarked) [Example 66, 1-Ethyl-N-((1,2,3,5,6,7-hexahydro-s-indacen-4-yl)carbamoyl)-1,2,3,4-tetrahydroquinoline-3-sulfonamide, potassium salt]	< 1
O=C(Nc1c2c(cc3c1CCC3)CCC2)NS(=O)(=O)C1CCN(CC(F)(F)F)CC1 [Example 67, N-((1,2,3,5,6,7-Hexahydro-s-indacen-4-yl)carbamoyl)-1-(2,2,2-trifluoroethyl)piperidine-4-sulfonamide, potassium salt]	1 to 10
CC(C)N1CCC(S(=O)(=O)NC(=O)Nc2c3c(cc4c2CCC4)CCC3)C1=O (centres unmarked) [Example 68, N-((1,2,3,5,6,7-Hexahydro-s-indacen-4-yl)carbamoyl)-1-isopropyl-2-oxopyrrolidine-3-sulfonamide, potassium salt]	< 1
CCN1CCC(N2CC(S(=O)(=O)NC(=O)Nc3c4c(cc5c3CCC5)CCC4)C2)CC1 [Example 73, 1-(1-Ethylpiperidin-4-yl)-N-((1,2,3,5,6,7-hexahydro-s-indacen-4-yl)carbamoyl)azetidine-3-sulfonamide, potassium salt]	1 to 10
CC(C)(C)OC(=O)N1CC(S(=O)(=O)NC(=O)Nc2c3c(cc4c2CCC4)CCC3)C1 [Example 77, tert-Butyl 3-(N-((1,2,3,5,6,7-hexahydro-s-indacen-4-yl)carbamoyl)sulfamoyl)azetidine-1-carboxylate, potassium salt]	1 to 10
CC(=O)N1CC(N2CCC(S(=O)(=O)NC(=O)Nc3c4c(cc5c3CCC5)CCC4)CC2)C1 [Example 79, 1-(1-Acetylazetidin-3-yl)-N-((1,2,3,5,6,7-hexahydro-s-indacen-4-yl)carbamoyl)piperidine-4-sulfonamide, potassium salt]	1 to 10
CN1CC(N2CCC(S(=O)(=O)NC(=O)Nc3c4c(cc5c3CCC5)CCC4)CC2)C1 [Example 80, N-((1,2,3,5,6,7-Hexahydro-s-indacen-4-yl)carbamoyl)-1-(1-methylazetidin-3-yl)piperidine-4-sulfonamide, potassium salt]	1 to 10
CCC(CC)N1CCC(S(=O)(=O)NC(=O)Nc2c3c(cc4c2CCC4)CCC3)C1 (centres unmarked) [Example 81, N-((1,2,3,5,6,7-Hexahydro-s-indacen-4-yl)carbamoyl)-1-(pentan-3-yl)pyrrolidine-3-sulfonamide, potassium salt]	1 to 10
CC(C)(O)CN1CC(S(=O)(=O)NC(=O)Nc2c3c(cc4c2CCC4)CCC3)C1 [Example 84, N-((1,2,3,5,6,7-Hexahydro-s-indacen-4-yl)carbamoyl)-1-(2-hydroxy-2-methylpropyl)azetidine-3-sulfonamide, potassium salt]	< 1
O=C(Nc1c2c(cc3c1CCC3)CCC2)NS(=O)(=O)C1CN(C(CF)CF)C1 [Example 86, 1-(1,3-Difluoropropan-2-yl)-N-((1,2,3,5,6,7-hexahydro-s-indacen-4-yl)carbamoyl)azetidine-3-sulfonamide, potassium salt]	1 to 10
COCCN1CC(S(=O)(=O)NC(=O)Nc2c3c(cc4c2CCC4)CCC3)C1 [Example 88, N-((1,2,3,5,6,7-Hexahydro-s-indacen-4-yl)carbamoyl)-1-(2-methoxyethyl)azetidine-3-sulfonamide, potassium salt]	< 1
O=C(Nc1c2c(cc3c1CCC3)CCC2)NS(=O)(=O)C1CN(CC2CCCCC2)C1 [Example 89, 1-(Cyclohexylmethyl)-N-((1,2,3,5,6,7-hexahydro-s-indacen-4-yl)carbamoyl)azetidine-3-sulfonamide, potassium salt]	1 to 10
CC(=N)N1CC(S(=O)(=O)NC(=O)Nc2c3c(cc4c2CCC4)CCC3)C1 [Example 100, N-((1,2,3,5,6,7-Hexahydro-s-indacen-4-yl)carbamoyl)-1-(1-iminoethyl)azetidine-3-sulfonamide, potassium salt]	1 to 10
CN(C)CCN1CC(S(=O)(=O)NC(=O)Nc2c3c(cc4c2CCC4)CCC3)C1 [Example 102, 1-(2-(Dimethylamino)ethyl)-N-((1,2,3,5,6,7-hexahydro-s-indacen-4-yl)carbamoyl)azetidine-3-sulfonamide, potassium salt]	1 to 10
O=C(Nc1c2c(cc3c1CCC3)CCC2)NS(=O)(=O)C1CN(Cc2ccccn2)C1 [Example 104, N-((1,2,3,5,6,7-Hexahydro-s-indacen-4-yl)carbamoyl)-1-(pyridin-2-ylmethyl)azetidine-3-sulfonamide, potassium salt]	< 1
CSCCN1CC(S(=O)(=O)NC(=O)Nc2c3c(cc4c2CCC4)CCC3)C1 [Example 107, N-((1,2,3,5,6,7-Hexahydro-s-indacen-4-yl)carbamoyl)-1-(2-(methylthio)ethyl)azetidine-3-sulfonamide, potassium salt]	< 1
CN1CC(N2CC(S(=O)(=O)NC(=O)Nc3c4c(cc5c3CCC5)CCC4)C2)C1 [Example 110, N-((1,2,3,5,6,7-Hexahydro-s-indacen-4-yl)carbamoyl)-1′-methyl-[1,3′-biazetidine]-3-sulfonamide, potassium salt]	1 to 10
C#CCCC1(CCN2CC(S(=O)(=O)NC(=O)Nc3c4c(cc5c3CCC5)CCC4)C2)N=N1 [Example 111, 1-(2-(3-(But-3-yn-1-yl)-3H-diazirin-3-yl)ethyl)-N-((1,2,3,5,6,7-hexahydro-s-indacen-4-yl)carbamoyl)azetidine-3-sulfonamide, potassium salt]	1 to 10
O=C(Nc1c2c(cc3c1CCC3)CCC2)NS(=O)(=O)C1CN(C2COC2)C1 [Example 116, N-((1,2,3,5,6,7-Hexahydro-s-indacen-4-yl)carbamoyl)-1-(oxetan-3-yl)azetidine-3-sulfonamide, potassium salt]	1 to 10
O=C(Nc1c2c(cc3c1CCC3)CCC2)NS(=O)(=O)C1CN(C2C[S+]([O-])C2)C1 (centres unmarked) [Example 117, N-((1,2,3,5,6,7-Hexahydro-s-indacen-4-yl)carbamoyl)-1-(1-oxidothietan-3-yl)azetidine-3-sulfonamide, potassium salt]	< 1
CC1CC(N2CC(S(=O)(=O)NC(=O)Nc3c4c(cc5c3CCC5)CCC4)C2)C1 (centres unmarked) [Example 118, N-((1,2,3,5,6,7-Hexahydro-s-indacen-4-yl)carbamoyl)-1-(3-methylcyclobutyl)azetidine-3-sulfonamide, potassium salt]	< 1
CC1(C)CC(N2CC(S(=O)(=O)NC(=O)Nc3c4c(cc5c3CCC5)CCC4)C2)C1 [Example 119, 1-(3,3-Dimethylcyclobutyl)-N-((1,2,3,5,6,7-hexahydro-s-indacen-4-yl)carbamoyl)azetidine-3-sulfonamide, potassium salt]	1 to 10
O=C(Nc1c2c(cc3c1CCC3)CCC2)NS(=O)(=O)C1CN(C2CS(=O)(=O)C2)C1 [Example 120, 1-(1,1-Dioxidothietan-3-yl)-N-((1,2,3,5,6,7-hexahydro-s-indacen-4-yl)carbamoyl)azetidine-3-sulfonamide, potassium salt]	1 to 10
Cn1ccnc1CN1CC(S(=O)(=O)NC(=O)Nc2c3c(cc4c2CCC4)CCC3)C1 [Example 123, N-((1,2,3,5,6,7-Hexahydro-s-indacen-4-yl)carbamoyl)-1-((1-methyl-1H-imidazol-2-yl)methyl)azetidine-3-sulfonamide, potassium salt]	1 to 10
C/C(CN1CC(S(=O)(=O)NC(=O)Nc2c3c(cc4c2CCC4)CCC3)C1)=N/O [Example 128, N-((1,2,3,5,6,7-Hexahydro-s-indacen-4-yl)carbamoyl)-1-(2-(hydroxyimino)propyl)azetidine-3-sulfonamide, potassium salt]	1 to 10
C[Si](C)(C)CN1CC(S(=O)(=O)NC(=O)Nc2c3c(cc4c2CCC4)CCC3)C1 [Example 136, N-((1,2,3,5,6,7-Hexahydro-s-indacen-4-yl)carbamoyl)-1-((trimethylsilyl)methyl)azetidine-3-sulfonamide, potassium salt]	1 to 10
CC1(CCN2CC(S(=O)(=O)NC(=O)Nc3c4c(cc5c3CCC5)CCC4)C2)N=N1 [Example 139, N-((1,2,3,5,6,7-Hexahydro-s-indacen-4-yl)carbamoyl)-1-(2-(3-methyl-3H-diazirin-3-yl)ethyl)azetidine-3-sulfonamide, potassium salt]	1 to 10
Cn1cc(CN2CC(S(=O)(=O)NC(=O)Nc3c4c(cc5c3CCC5)CCC4)C2)ccc1=O [Example 140, N-((1,2,3,5,6,7-Hexahydro-s-indacen-4-yl)carbamoyl)-1-((1-methyl-6-oxo-1,6-dihydropyridin-3-yl)methyl)azetidine-3-sulfonamide, potassium salt]	< 1
O=C(Nc1c2c(cc3c1CCC3)CCC2)NS(=O)(=O)C1CN(CCC2CCOC2)C1 (centres unmarked) [Example 142, N-((1,2,3,5,6,7-Hexahydro-s-indacen-4-yl)carbamoyl)-1-(2-(tetrahydrofuran-3-yl)ethyl)azetidine-3-sulfonamide, potassium salt]	< 1
